In US20060251638A1, “Cytoprotection through the use of hif hydroxylase inhibitors” (priority 2003, published 2006):

Tests used:
H9c2 rat cardiomyocytes [1] = experiment: Intracellular ATP levels and morphology of H9c2 cardiomyocytes under homocysteic acid (HCA) oxidative stress; assay type: cell-based
Procedure: H9c2 rat cardiomyocytes were incubated with 10 mM homocysteic acid (HCA) in the absence or presence of various concentrations of compound G as indicated for 24 hours. Cell viability was determined by measuring intracellular ATP levels. Quantitation of intracellular ATP levels was performed using the ViaLight Plus™ kit (Cambrex Cat. No. LT17-221) according to the manufacturers instructions.
Phase contrast microscopy of cells treated with HCA correlated with the results shown for intracellular ATP levels in vehicle (DMSO) and compound G treated cells.

H9c2 rat cardiomyocytes [2] = experiment: Intracellular ATP levels in H9c2 cardiomyocytes after oxygen and glucose deprivation (glucose-free DMEM, 2 mM KCN); assay type: cell-based; settings: H9c2, 20 μM pretreatment 24 hours, glucose-free DMEM and 2 mM KCN for 30 minutes; vehicle control 415
Procedure: In similar experiments, H9c2 rat cardiomyocytes were pretreated with either vehicle control (0.5% DMSO) or 20 μM of Compound A, Compound B, Compound C, Compound D, Compound E, Compound F, Compound G, or compound H. After 24 hours, cells were washed with serum-free DMEM and subjected to oxygen and glucose deprivation by incubating the cells in glucose-free DMEM and 2 mM KCN for 30 minutes. Intracellular ATP levels were then determined.

caspase-3 and caspase-7 = experiment: Caspase-3 and caspase-7 fluorometric assay in SH-SY5Y cells challenged with staurosporin; assay type: cell-based, human
Procedure: SH-SY5Y cells (human neuroblastoma cells) were plated in 96-well culture plates at 60,000 cells per well. Following overnight incubation, cells were washed one time with DMEM containing 1% fetal bovine serum and cultured in identical media with either vehicle control (DMSO) or 20 μM compound G in a total volume of 200 μl per well. After 24 hours, cells were washed with serum-free media and then incubated with DMEM containing 10% fetal bovine serum with either vehicle control (DMSO) or 20 μM compound G in a total volume of 200 μl per well. Replicate cultures received DMEM with 1% fetal bovine serum and were cultured with either vehicle control (DMSO) or 20 μM compound G, in the absence or presence of 500 nM staurosporin, a kinase inhibitor that induces cellular apoptosis by a caspase-dependent mechanism. (Jacobsen et al. (1996) J Cell Biol. 133:1041-51.). After an additional 24 hour incubation, caspase activity was assayed using a caspase-3 and caspase-7 fluorometric assay according to the manufacturer's instructions (Apo-ONE Homogenous Caspase 3/7 Assay, Promega, Wis.).

## O=C(O)CNC(=O)c1ncc2cc(Oc3ccccc3)ccc2c1O [Compound G, [(4-Hydroxy-7-phenoxy-isoquinoline-3-carbonyl)-amino]-acetic acid]
H9c2 rat cardiomyocytes [1]; H9c2, 10 mM HCA, various concentrations, 24 hours, FIG. 2
  intracellular ATP levels in the presence of HCA versus vehicle: dose-dependent increases in intracellular ATP levels
H9c2 rat cardiomyocytes [1]; H9c2, HCA, 30 μM compound, FIG. 3
  cell morphology by phase contrast microscopy under HCA: still confluent, appeared less rounded, and maintained a morphology consistent with viable cardiomyoctes
H9c2 rat cardiomyocytes [1]; H9c2, no HCA, data not shown
  intracellular ATP levels in cells not incubated with HCA: unchanged
H9c2 rat cardiomyocytes [2]
  ATP (relative light units): 2128.3 relative light units
caspase-3 and caspase-7; 20 μM pretreatment, 500 nM staurosporin, 1% fetal bovine serum, FIG. 1
  caspase activity after staurosporine challenge: significantly inhibited
caspase-3 and caspase-7; 20 μM, 10% fetal bovine serum, no staurosporin
  caspase activity in cells not undergoing apoptosis, versus DMSO: no differences in caspase activity
